The source of these data is ChEMBL document CHEMBL1201862, “PubChem BioAssay data set” (2004).

The source made the active and inactive calls.

As usually defined, the AC50 is the concentration giving half of the maximal activity seen. By IC50 is commonly meant the concentration that inhibits the measured activity by half. A word on the EC50: it is the midpoint of the concentration-response curve. The CC50 is the concentration at which the toxic effect on the cells reaches its halfway point.

Experiment [1] can be described thus: cytotoxicity in BJeHLT fibroblasts, dose response, counter-screen for Ras selective lethality project, BJeHLT cells, dry powder (AID 493052). Particulars: Homo sapiens. The format is functional, cell-based.
A short description of experiment [2]: viability loss in HRASV12 DRD fibroblasts, dose response, cell-based, DRD BJ fibroblasts, dry powder (AID 493049). The format is functional.
The nature of experiment [3]: viability loss in BJeLR (HRASV12) cells, primary screen, Ras selective lethality project, cell-based, Alamar Blue, dry powder (AID 493045). The experiment is classed as functional. In general terms: Alamar Blue is a resazurin reagent that responds to reducing activity.
A short description of experiment [4]: cytotoxicity in BJeH fibroblasts, dose response, counter-screen for Ras selective lethality project, BJeH cells, dry powder (AID 493054). The experiment is classed as functional, cell-based.
Experiment [5] deals with T1, Carboxy-terminal domain RNA polymerase II polypeptide A small phosphatase 1 (Homo sapiens, UniProt Q9GZU7).
T1 sequence (Q9GZU7 whole entry): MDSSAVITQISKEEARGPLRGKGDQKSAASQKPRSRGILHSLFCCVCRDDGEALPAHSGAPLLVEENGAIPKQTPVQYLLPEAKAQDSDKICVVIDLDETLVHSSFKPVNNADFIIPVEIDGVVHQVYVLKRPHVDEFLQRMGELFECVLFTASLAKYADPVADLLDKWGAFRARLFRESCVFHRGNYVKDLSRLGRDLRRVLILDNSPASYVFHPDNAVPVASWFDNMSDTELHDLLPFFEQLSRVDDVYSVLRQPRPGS
Description: inhibitors of CTDSP1, concentration-response testing, biochemical assay, absorbance-based, actives from ultra-high-throughput screening (AID 540297). The experiment is classed as functional.

Experiment [6] concerns the target T2, Eukaryotic translation initiation factor 4H (Homo sapiens, UniProt Q15056). The experiment can be described thus: eIF4H inhibition in translation initiation, SAR follow-up (AID 435011). The format is functional.
Experiment [7] deals with T3, Polyadenylate-binding protein 1 (Homo sapiens, UniProt P11940). The experiment can be described thus: PABP poly(A) RNA binding inhibitors, primary screen, biochemical, fluorescence polarization, uHTS (AID 2014).
T3 sequence (P11940 whole entry): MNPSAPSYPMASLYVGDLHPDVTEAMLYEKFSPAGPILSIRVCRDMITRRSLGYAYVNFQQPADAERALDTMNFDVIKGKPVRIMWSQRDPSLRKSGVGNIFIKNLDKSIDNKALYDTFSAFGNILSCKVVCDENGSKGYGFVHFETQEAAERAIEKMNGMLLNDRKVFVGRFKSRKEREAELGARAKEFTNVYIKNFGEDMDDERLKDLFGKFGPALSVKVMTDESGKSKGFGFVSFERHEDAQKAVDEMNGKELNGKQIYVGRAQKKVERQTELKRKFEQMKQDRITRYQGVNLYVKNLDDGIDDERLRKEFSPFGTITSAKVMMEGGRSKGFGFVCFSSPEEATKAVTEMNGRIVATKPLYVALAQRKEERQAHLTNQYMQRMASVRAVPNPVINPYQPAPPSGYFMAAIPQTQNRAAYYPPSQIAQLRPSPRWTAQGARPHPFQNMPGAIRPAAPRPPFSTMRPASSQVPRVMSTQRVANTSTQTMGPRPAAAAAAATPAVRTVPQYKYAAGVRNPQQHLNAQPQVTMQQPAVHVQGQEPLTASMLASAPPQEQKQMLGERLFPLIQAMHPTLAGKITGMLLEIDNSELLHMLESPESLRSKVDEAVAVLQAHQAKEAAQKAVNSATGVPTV
The target in experiment [8] is T3, Polyadenylate-binding protein 1. Description: PABP inhibition in translation initiation, SAR follow-up (AID 435018). The experiment is classed as functional.
Experiment [9] addresses T2, Eukaryotic translation initiation factor 4H. Description: human eIF4H binding inhibitors, primary screen, translation initiation inhibitor project, biochemical, uHTS, fluorescence polarization (AID 2012). (In fluorescence polarisation assays a small probe gives low polarisation when free and higher when bound to something large.)
Experiment [10] addresses T4, Type-1 angiotensin II receptor (Homo sapiens, UniProt P30556).
T4 sequence (P30556 whole entry): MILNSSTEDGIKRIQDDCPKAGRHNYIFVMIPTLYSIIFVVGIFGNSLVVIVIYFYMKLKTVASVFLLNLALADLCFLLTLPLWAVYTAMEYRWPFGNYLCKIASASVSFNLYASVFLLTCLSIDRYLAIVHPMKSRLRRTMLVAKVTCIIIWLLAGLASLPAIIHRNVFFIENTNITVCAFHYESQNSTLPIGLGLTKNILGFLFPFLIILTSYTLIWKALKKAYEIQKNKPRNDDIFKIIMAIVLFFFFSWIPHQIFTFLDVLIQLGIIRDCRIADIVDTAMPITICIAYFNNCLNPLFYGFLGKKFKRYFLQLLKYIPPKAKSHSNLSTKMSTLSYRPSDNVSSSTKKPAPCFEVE
Description: AT1 receptor antagonists, dose response, selectivity assay for APJ receptor antagonist project, cell-based, uHTS hits (AID 463214).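 Further: antagonist potency against angiotensin II stimulated AT1 response.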 The experiment is classed as functional.

Experiment [11] has as its target T5, Beta-galactosidase (Escherichia coli, UniProt Q8VNN2). The experiment is classed as functional.
The target of experiment [12] is E3 ubiquitin-protein ligase Mdm2 (Homo sapiens, UniProt Q00987). The experiment can be described thus: enhancers of MDM2-luciferase reporter signal, concentration-effect titration, project on inhibitors of MDM2 ubiquitin ligase, cellular assay, luminescent readout, 384-well plate format (AID 1394).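 Further: MDM2 E3 inhibitors raise luminescence so EC50 is for signal enhancement.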 The experiment is classed as functional. (In a reporter assay the amount or activity of a reporter protein is the signal.)
E3 ubiquitin-protein ligase Mdm2, sequence (Q00987 whole entry): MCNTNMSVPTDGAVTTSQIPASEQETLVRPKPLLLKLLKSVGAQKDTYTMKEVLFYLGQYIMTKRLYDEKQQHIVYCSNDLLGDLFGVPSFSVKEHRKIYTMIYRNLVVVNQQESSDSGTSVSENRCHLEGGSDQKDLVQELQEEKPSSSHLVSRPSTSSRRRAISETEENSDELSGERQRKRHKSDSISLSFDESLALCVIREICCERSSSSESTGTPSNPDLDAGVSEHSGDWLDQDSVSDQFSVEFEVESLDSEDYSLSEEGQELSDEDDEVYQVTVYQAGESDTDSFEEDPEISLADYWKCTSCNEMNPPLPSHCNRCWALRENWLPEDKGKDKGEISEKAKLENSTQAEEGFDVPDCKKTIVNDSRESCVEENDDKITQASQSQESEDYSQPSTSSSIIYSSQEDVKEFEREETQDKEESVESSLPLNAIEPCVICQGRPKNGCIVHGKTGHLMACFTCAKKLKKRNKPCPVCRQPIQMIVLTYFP

The target of experiment [13] is T5, Beta-galactosidase. Description: PubChem AID 485352. The format is functional.
Experiment [14] has as its target T6, Kappa-type opioid receptor (Homo sapiens, UniProt P41145). The experiment is classed as functional.
The target in experiment [15] is T6, Kappa-type opioid receptor. The format is functional. This is another data set of the same source.
The nature of experiment [16]: cytotoxicity in HEK-293T cells, dose response, cytotoxicity control for TCR NF-kB inhibitor project, luminescence, T-cell screen hits (AID 489026).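 Further: cells exposed to compound about 14 hours before the viability readout.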 The format is functional, cell-based.
Experiment [17] can be described thus: Luminescence-based dose response cell-based high throughput screening assay for cytotoxic compounds using the IEC-6 intestinal epithelial cell line. [Related pubchem assays: 1858 (Summary AID.), 1825 (Counterscreen.), 1907 (Confirmation screen.)]. The experiment is classed as functional.
A further experiment has as its target Cytochrome P450 2C19 (Homo sapiens, UniProt P33261). The experiment can be described thus: Cytochrome panel assay with activity outcomes. Panel member name: p450-cyp2c19 Compounds with AC50 equal or less than 10 uM are considered active. Particulars: read-out: AC50. The format is functional.
In the next experiment the target is Cytochrome P450 2D6 (Homo sapiens, UniProt P10635).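 Further: CYP2D6 member of a cytochrome P450 panel assay.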
Cytochrome P450 2D6, sequence (P10635 whole entry): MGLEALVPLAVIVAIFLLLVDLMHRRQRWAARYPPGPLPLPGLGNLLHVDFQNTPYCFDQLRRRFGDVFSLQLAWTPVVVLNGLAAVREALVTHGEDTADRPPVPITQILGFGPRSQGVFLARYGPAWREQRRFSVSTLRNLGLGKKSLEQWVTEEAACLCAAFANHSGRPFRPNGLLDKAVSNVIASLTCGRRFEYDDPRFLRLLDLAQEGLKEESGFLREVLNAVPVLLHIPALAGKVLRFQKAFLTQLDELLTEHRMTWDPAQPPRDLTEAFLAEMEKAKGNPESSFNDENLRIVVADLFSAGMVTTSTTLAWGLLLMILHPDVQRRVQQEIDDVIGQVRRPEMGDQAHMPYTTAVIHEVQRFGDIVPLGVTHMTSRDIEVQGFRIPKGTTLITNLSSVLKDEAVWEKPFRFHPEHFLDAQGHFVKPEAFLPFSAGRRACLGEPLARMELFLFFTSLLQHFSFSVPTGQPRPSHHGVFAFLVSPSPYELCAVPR
A further experiment concerns the target T7, Coagulation factor XII (Homo sapiens, UniProt P00748).
T7 sequence (P00748 whole entry): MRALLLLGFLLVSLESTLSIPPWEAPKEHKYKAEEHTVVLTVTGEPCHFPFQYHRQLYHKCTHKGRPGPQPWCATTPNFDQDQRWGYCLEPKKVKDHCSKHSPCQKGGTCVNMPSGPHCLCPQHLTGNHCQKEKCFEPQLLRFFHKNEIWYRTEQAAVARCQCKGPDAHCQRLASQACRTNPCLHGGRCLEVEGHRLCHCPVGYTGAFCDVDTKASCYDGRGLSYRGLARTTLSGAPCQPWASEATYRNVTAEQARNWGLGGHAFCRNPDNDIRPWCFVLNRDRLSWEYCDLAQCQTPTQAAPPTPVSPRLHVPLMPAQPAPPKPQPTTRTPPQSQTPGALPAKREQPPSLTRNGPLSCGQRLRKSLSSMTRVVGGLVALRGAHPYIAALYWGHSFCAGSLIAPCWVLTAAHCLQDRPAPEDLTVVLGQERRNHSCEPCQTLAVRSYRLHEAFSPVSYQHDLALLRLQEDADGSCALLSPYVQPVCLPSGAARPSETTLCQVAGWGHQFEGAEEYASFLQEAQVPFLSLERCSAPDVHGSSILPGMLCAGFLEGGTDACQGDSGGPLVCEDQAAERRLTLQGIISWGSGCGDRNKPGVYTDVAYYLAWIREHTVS
Description: FXIIa inhibitor potency, concentration-response, biochemical (AID 716). The experiment is classed as functional.

A short description of experiment [18]: non-specific cell cytotoxicity, dose response, cytotoxicity control for PAX8 inhibitor project, plate reader, dry powder samples (AID 743021). The experiment is classed as functional, cell-based.
A short description of experiment [19]: HEK293 cell cytotoxicity, dose response, cytotoxicity control, cherry-picks, set 5 (AID 1053117). The format is functional, cell-based.
A further experiment addresses Paired box protein Pax-8 (Homo sapiens, UniProt Q06710). Description: inhibitors of PAX8-driven TPO luciferase reporter, dose response, RMG-I cells, cherry-pick (AID 687027).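 Further: luciferase reporter driven by Pax8 target thyroperoxidase promoter measured by SteadyGlo luminescence.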 The format is functional, cell-based.
The next experiment addresses Protein Tat (Human immunodeficiency virus type 1 group M subtype B (isolate HXB2)(HIV-1), UniProt P04608). The experiment is classed as functional.
Experiment [20] can be described thus: inhibitors of fibronectin matrix deposition, dose response, AH1F cells, Alexa488-FN fluorescence, cherry-picks (AID 1035475). The experiment is classed as functional, cell-based.
Experiment [21] is described as follows: HepG2 cell cytotoxicity, dose response, cytotoxicity control, cherry-picks, set 5 (AID 1053118). The experiment is classed as functional, cell-based.
The target in experiment [22] is T8, Rac GTPase-activating protein 1 (Homo sapiens, UniProt Q9H0H5).
T8 sequence (Q9H0H5 whole entry): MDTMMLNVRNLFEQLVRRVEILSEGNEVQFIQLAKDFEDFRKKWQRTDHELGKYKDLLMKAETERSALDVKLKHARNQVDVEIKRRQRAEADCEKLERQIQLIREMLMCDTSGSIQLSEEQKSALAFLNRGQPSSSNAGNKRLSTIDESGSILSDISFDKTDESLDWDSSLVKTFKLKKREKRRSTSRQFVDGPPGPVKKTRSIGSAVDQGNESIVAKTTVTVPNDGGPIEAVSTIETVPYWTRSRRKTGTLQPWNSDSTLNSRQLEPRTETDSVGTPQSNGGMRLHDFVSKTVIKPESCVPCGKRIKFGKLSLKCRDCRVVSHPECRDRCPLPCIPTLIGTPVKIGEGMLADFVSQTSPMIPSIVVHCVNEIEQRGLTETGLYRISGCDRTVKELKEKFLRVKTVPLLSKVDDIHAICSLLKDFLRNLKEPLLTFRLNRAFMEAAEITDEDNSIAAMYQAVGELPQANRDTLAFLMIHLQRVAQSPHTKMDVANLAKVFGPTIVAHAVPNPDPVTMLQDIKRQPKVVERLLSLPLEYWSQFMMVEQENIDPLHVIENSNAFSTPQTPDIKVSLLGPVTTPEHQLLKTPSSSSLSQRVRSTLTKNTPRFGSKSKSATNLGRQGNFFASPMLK
The experiment can be described thus: MgcRacGAP GTPase-activating activity inhibitors, confirmation, biochemical, ADP Hunter fluorescence, primary and confirmatory (AID 624330). The format is functional.

For experiment [23], the target named is Heat shock protein HSP 90-alpha (Homo sapiens, UniProt P07900). The experiment is classed as functional, organism-based.
Experiment [24] addresses T5, Beta-galactosidase. Description: beta-galactosidase enzyme inhibitors and activators, dose response, artefact control for CCR6 antagonist project, biochemical, E. coli enzyme, set 3 (AID 504712). The format is functional.
A short description of experiment [25]: A549 cell cytotoxicity, dose response, cytotoxicity control, cherry-picks, 26 µM top dose (AID 1053119). The experiment is classed as functional, cell-based.
A short description of experiment [26]: THP-1 cell cytotoxicity, dose response, cytotoxicity control for Vif-APOBEC3G degradation inhibitor project, THP-1 cells (AID 1117359). The format is functional. Particulars: Human immunodeficiency virus 1, THP-1.
In experiment [27] the target is C-C chemokine receptor type 6 (Homo sapiens, UniProt P51684). The experiment can be described thus: CCR6 receptor antagonists, dose response, cell-based, luminescent beta-arrestin readout (AID 504728). The format is functional.
C-C chemokine receptor type 6, sequence (P51684 whole entry): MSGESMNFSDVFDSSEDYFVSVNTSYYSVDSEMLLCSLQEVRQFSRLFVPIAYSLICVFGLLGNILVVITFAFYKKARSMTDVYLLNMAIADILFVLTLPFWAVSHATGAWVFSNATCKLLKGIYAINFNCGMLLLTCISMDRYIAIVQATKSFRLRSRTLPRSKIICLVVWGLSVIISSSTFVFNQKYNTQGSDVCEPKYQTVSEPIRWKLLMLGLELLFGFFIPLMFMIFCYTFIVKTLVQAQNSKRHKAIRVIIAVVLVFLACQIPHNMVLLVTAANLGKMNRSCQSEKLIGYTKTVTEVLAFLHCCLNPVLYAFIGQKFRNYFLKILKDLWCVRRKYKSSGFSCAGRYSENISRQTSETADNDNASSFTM
Another experiment deals with Vero. The experiment can be described thus: Vero cell cytotoxicity, cytotoxicity control for flavivirus capping enzyme inhibitors (AID 588742). The experiment is classed as functional. To be noted: Chlorocebus sabaeus.
The nature of experiment [28]: HeLa cell cytotoxicity, dose response, cytotoxicity control for MgcRacGAP inhibitor project (AID 624300). The format is functional.
The target of the next experiment is Genome polyprotein (dengue virus type 2, UniProt P29990). The experiment can be described thus: Dengue-2 NS5 methyltransferase inhibitors, primary screen, biochemical, confirmation dose response (AID 588689). The experiment is classed as functional.

T5 sequence (Q8VNN2 whole entry): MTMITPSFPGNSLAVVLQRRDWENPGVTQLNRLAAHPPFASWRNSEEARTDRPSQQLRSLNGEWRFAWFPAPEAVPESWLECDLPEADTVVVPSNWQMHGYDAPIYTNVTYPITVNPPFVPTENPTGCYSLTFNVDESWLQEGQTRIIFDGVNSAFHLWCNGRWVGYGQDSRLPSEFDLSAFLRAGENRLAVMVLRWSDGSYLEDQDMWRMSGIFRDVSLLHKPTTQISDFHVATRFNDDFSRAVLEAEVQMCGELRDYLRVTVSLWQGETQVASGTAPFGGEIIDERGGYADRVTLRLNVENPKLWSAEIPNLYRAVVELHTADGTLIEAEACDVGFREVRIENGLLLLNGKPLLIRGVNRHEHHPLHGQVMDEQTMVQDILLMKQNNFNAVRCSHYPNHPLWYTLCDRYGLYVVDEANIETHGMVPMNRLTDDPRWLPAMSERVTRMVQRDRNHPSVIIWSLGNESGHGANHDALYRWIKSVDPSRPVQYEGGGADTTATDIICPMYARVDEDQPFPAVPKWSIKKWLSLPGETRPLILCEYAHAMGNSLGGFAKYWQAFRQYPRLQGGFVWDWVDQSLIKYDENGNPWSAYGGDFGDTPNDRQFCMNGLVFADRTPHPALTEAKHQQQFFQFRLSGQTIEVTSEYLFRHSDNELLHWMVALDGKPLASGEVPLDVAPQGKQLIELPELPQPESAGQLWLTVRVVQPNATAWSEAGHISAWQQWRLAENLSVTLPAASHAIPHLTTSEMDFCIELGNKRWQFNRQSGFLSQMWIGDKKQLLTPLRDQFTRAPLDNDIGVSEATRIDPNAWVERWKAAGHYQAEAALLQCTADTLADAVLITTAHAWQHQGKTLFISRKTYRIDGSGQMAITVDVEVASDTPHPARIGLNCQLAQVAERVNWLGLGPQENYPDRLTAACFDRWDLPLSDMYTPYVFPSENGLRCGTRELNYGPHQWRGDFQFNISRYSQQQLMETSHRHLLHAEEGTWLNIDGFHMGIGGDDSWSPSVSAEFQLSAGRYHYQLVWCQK
T6 sequence (P41145 whole entry): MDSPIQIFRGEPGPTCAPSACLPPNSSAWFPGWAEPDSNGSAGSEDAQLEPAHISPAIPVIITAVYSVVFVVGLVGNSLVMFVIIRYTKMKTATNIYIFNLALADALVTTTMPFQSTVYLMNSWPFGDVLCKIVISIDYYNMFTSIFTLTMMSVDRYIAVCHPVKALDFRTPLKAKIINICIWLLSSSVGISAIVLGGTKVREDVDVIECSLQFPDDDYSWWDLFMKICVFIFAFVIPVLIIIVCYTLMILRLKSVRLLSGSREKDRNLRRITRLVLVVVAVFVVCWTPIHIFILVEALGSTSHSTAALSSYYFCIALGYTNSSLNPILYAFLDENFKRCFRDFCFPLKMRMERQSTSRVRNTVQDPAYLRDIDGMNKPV
Paired box protein Pax-8, sequence (Q06710 whole entry): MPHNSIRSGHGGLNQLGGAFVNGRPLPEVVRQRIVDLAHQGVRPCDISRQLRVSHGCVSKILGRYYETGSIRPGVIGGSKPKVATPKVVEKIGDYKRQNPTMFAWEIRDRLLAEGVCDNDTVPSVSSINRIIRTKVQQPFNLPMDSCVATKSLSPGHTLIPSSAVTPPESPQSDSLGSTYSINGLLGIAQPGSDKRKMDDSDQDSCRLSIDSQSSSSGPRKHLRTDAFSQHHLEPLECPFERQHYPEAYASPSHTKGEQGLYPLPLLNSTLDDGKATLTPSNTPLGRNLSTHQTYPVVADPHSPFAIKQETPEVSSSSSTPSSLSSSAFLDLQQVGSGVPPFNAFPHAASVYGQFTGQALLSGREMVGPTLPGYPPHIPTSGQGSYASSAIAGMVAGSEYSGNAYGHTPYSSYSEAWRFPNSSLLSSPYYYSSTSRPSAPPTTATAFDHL
Cytochrome P450 2C19, sequence (P33261 whole entry): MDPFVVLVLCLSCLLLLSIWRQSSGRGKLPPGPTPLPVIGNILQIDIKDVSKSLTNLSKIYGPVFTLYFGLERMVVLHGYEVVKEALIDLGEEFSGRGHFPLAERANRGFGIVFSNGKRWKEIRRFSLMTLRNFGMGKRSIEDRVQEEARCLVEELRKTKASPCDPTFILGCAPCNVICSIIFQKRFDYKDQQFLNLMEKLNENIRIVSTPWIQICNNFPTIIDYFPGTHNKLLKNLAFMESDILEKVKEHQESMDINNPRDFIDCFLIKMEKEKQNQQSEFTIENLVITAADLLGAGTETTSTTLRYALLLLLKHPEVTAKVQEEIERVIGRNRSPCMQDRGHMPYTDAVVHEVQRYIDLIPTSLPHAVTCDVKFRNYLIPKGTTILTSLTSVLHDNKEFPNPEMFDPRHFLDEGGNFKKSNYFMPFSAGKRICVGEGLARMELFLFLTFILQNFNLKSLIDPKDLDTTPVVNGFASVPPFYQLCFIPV
Protein Tat, sequence (P04608 whole entry): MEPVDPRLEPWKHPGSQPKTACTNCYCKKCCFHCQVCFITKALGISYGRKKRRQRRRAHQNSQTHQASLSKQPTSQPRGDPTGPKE

`COc1ccc(N(C(=O)CCl)C(C(=O)NCCc2ccccc2)c2nc(C)cs2)cc1Cl` (stereo not given): the AC50 is 19.8 µM (active) in experiment [1], 8.54 µM (active) in experiment [2], 8.26 µM (active) in experiment [3] and 32.7 µM (active) in experiment [4].
Consider `CC(C)c1ccc(OC(=O)c2cccc(S(=O)(=O)N3CCN(C)CC3)c2)cc1`, for which the IC50 in [5] is 11.6 µM (active); in [6], 27.6 µM (active); in experiment [7], 6.93 µM (active); in experiment [8], 15.7 µM (active); in experiment [9] it was > 100 µM (inactive).
On to `COc1ccc(C[S+]([O-])/C(Cl)=C(/Cl)C(=O)Nc2ccc(OC)nc2)cc1` (stereo not given), for which the IC50 in experiment [10] was 2.92 µM (active); in [14] it was 5.22 µM (active); in [15], 8.26 µM; in experiment [16] it was 31.5 µM (inactive); in [17], 1.65 µM (active). Further, the EC50 is > 31.5 µM (inactive) on Beta-galactosidase [11], 0.56 µM (active) in [12] and > 40 µM (inactive) on Beta-galactosidase [13].
In the case of `CCS(=O)(=O)N1CCC(C(=O)NCc2ccc(F)cc2Cl)CC1`, the AC50 was 39.8 µM (inconclusive) at Cytochrome P450 2C19 and 14.1 µM (inconclusive) at Cytochrome P450 2D6. Besides, on Coagulation factor XII, the IC50 is > 50 µM (inactive).
In the case of `CC1OC(CC(=O)O)CC2=C1C(=O)c1c(O)cccc1C2=O` (stereo not given) [NANAOMYCIN], the AC50 in experiment [18] was 3.45 µM (active); in [19], 2.5 µM (active); at Paired box protein Pax-8, 0.469 µM (active); in experiment [20], 0.779 µM (active); in experiment [21] it was 0.37 µM (active); in experiment [23], 0.262 µM (active). Besides, the AC50 in [25] is 0.485 µM (active). The IC50 was > 100 µM (active) at Protein Tat; 76.4 µM (active) in experiment [22]; > 66.6 µM (inactive) on Beta-galactosidase [24]; > 66.6 µM (inactive) in experiment [27]; 5.04 µM (active) at Genome polyprotein. Also, the CC50 in [26] was 0.69 µM (active); with Vero it was 0.72 µM (active); in [28] it was 5.86 µM (active).
